Experimental data from US9890407B2, “Method for synthesizing cellulose in vitro” (University of Virginia Patent Foundation, priority 2013, dated 2018).

Biological target: T1, Rhodobacter sphaeroides BcsA-B complex (cellulose synthase), wild type, BcsA SEQ ID NO: 1, BcsB SEQ ID NO: 3 (Cereibacter sphaeroides, UniProt Q3J125)
T1 construct: pETDuet, E. coli C43; purified, reconstituted in nanodiscs, proteoliposomes or detergent
T1 sequence (Q3J125 1-788): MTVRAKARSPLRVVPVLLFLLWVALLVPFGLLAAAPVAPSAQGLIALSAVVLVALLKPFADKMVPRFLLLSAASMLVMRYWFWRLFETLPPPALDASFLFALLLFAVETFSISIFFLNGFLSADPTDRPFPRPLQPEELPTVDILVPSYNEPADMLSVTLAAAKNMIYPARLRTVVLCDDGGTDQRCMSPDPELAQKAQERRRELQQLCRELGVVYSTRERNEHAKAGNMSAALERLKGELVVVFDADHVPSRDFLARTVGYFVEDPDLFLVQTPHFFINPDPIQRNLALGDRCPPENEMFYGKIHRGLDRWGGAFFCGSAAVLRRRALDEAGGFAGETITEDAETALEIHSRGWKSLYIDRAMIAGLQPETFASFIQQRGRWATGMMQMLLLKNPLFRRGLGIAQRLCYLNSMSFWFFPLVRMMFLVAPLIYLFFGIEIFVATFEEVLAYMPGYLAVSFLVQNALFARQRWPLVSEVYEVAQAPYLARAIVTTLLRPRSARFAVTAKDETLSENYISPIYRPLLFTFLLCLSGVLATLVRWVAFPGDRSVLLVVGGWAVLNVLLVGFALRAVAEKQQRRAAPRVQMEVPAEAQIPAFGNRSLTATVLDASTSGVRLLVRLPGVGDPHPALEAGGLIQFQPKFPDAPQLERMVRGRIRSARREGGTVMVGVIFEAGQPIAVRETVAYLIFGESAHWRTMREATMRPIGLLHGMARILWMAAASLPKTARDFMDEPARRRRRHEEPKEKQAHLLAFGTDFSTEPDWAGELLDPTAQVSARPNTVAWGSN
T1 sequence (Q3J126 21-725 partner): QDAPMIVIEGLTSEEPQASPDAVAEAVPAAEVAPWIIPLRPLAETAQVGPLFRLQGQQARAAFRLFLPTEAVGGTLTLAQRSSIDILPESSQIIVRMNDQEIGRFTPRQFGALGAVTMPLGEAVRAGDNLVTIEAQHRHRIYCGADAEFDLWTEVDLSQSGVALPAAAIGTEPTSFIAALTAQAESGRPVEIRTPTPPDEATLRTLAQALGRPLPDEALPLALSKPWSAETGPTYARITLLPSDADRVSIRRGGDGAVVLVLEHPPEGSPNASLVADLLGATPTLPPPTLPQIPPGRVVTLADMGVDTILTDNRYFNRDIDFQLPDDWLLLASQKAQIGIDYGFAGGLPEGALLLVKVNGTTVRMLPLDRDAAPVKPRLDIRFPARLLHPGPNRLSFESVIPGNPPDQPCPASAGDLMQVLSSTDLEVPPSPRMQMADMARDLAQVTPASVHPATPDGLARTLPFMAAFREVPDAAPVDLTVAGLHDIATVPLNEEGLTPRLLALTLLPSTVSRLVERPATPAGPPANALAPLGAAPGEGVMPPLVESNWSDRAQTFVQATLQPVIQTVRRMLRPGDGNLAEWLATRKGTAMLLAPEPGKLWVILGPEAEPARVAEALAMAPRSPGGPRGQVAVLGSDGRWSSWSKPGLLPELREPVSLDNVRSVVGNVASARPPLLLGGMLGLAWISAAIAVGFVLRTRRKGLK
Test: Cellulose synthesis sedimentation assay, inhibition by nucleoside diphosphates, PL-reconstituted BcsA-B
Assay type: biochemical
Details: 0.5 mM UDP-Glc; increasing nucleotide concentrations; 60 min, 37° C.
Experimental: FIG. 4A-4C (also referred to as Example 1, FIG. 4): Product inhibition of cellulose synthase. (FIG. 4A) Enzyme-coupled cellulose synthesis assays were performed as described in FIG. 3 in the absence or presence of 0.1 mg/ml E. coli BesZ. […] Inset: Radioactive sedimentation assay performed with ND-reconstituted BcsA-B synthesizing cellulose in the absence or presence of BcsZ. (FIG. 4B) Inhibition of cellulose synthesis by UDP. Cellulose synthesis sedimentation assays were performed with 1 μM PL-reconstituted BesA-B in the presence of increasing concentrations of the indicated nucleotides and 0.5 mM UDP-Glc for 60 min at 37° C. The obtained product is quantified relative to the polymer formed in the absence of any nucleoside diphosphate. (FIG. 4C) UDP is a competitive inhibitor of cellulose synthase. […] The products are quantified relative to the polymer formed in the absence of UDP and the presence of 5 mM UDP-Glc. […]
Standard cellulose synthase sedimentation assays were performed by incubating 1 μM of cellulose synthase complexes, either in PLs, ND or detergent micelles, in the presence of 30 μM c-di-GMP, 20 mM MgCl2, 5 mM UDP-Glc and 0.25 μCi UDP-[3H]-Glc in AB-buffer lacking glycerol and containing only 0.1 M NaCl. […] Following paper chromatography, the high molecular weight polymer retained at the origin was quantified by scintillation counting. […]

SMILES | inhibition of cellulose synthesis by nucleoside diphosphates
Nc1ncnc2c1ncn2[C@@H]1O[C@H](COP(=O)(O)OP(=O)(O)O)[C@@H](O)[C@H]1O [adenosine-diphosphate] | do not inhibit cellulose synthesis
Nc1nc2c(ncn2[C@@H]2O[C@H](COP(=O)(O)OP(=O)(O)O)[C@@H](O)[C@H]2O)c(=O)[nH]1 [guanosine-diphosphate] | do not inhibit cellulose synthesis
